Structures can show the parent of a compound that is named as a salt. Where two headings read alike, the source gives them in different places.
Experiments:
[1] = Water-solubility in phosphate buffer (50 mM, pH 7.4), HPLC; assay type: physicochemical; details: for solubility at 2 h: 50 mm phosphate buffer, aqueous buffer
Method: Clodronate and the prodrug molecules of clodronate were analysed with reverse phase/ion pair HPLC method (an isocratic program for clodronate; a gradient program for the simultaneous analysis of clodronate and a prodrug molecule), where detection of compounds was based on the measurement of light scattering caused by unevaporated compounds.
Equipment: Merck LaChrom HPLC (Merck Hitachi Ltd., Japan) Kromasil 100 RP-C8 (250×4.6 i.d., 5 μm) (Higgins Analytical Inc., USA)
Isocratic programe: methanol/ammoniumacetate buffer (3:97, pH 4.6), which contained 2.25% butylamine as ion pair reagent, flow 1.2 ml/min.
Gradient program: methanol (3%→40-60% during 1 min-6 min)/ammoniumacetate (pH 4.6), which contained 2.25% butylamine as ion pair reagent, flow 1.2 ml/min.
Detector: Sedex 55 light scattering detector (Sedere, France)
Settings: temperature of detector 70° C., pressure of evaporating gas (filtered air) 2.2 bar.
Water-solubilities of prodrug molecules were determined in phosphate buffer (50 mM, pH 7.4) at room temperature.
An excess of the compound to be tested was dissolved in about 5 ml of phosphate buffer. The suspension was stirred for 2 hours, the suspension was filtered, and the prodrug concentration of the filtrate was determined with HPLC. Water-solubility of clodronate was determined with the same method.

[2] = Enzymatic hydrolysis of prodrug molecules in 80% plasma at pH 7.40 and 37° C.; assay type: in vitro ADME; details: pH 7.4, 37° C.; for metabolised at 1 min: 1 minute, mean ± SE, n = 3, read-out: clodronate released in the first sample (1 minute)
Method: The enzyme hydrolysis rate of prodrug molecules was determined in a plasma/buffer mixture (80%-20%) at pH 7.40 and at 37° C.
The compound to be tested was dissolved in the buffer part and, after dissolution, plasma with a temperature of 37° C. was added. The solution was stirred with a magnetic stirrer and a sample of 0.25 ml was taken from the mixture at intervals of 1-360 min (depending on the molecule to be tested), to which sample 0.25 ml methanol (denatures proteins) was added. The sample was centrifuged, the clear supernatant was evaporated to dryness, the residue was dissolved in the eluent of the HPLC method, and the remaining prodrug concentration and the amount of the clodronate formed were analysed with HPLC. From the concentrations obtained a first-order graph was drawn (the remaining prodrug amount as a function of time), wherefrom a dissociation constant and half-life (T1/2) were determined.

[3] = Distribution coefficient octanol/buffer (log P); assay type: physicochemical; details: 1-octanol/buffer
Method: The fat-solubility of the compounds of the test was studied by determining the distribution coefficients (P) of the compounds at pH 7.4 and 2.0. The analysis were carried out in a mixture of octanol and buffer.
When the octanol/buffer method of analysis was used, 1-octanol and the phosphate buffer used (50 mM, pH 7.40, μ=0.15) were saturated with each other by stirring a mixture of these overnight. Phases were separated and a prodrug standard solution with the desired concentration was made in the buffer phase. Appropriate volumes of 1-octanol and the standard solution of phosphate buffer were mixed and the mixture was shaken vigorously for 60 min. After shaking the phases were separated and the concentration of the compound to be studied was analysed from the buffer phase before and after distribution according to the above described HPLC method. Distribution coefficient P was calculated from the following formula: [formula]
C1 =concentration of the compound to be studied before distribution
Ca =concentration of the compound to be studied after distribution
Va =volume of the buffer phase
Vo =volume of the octanol phase

[4] = Chemical hydrolysis of prodrug molecules in phosphate buffer at 37° C.; assay type: physicochemical; details: phosphate buffer 50 mM; for half-life: 50 mm phosphate buffer
Method: Chemical hydrolysis of prodrug molecules was analysed in phosphate buffer (50 mM, μ=0.15) at pH 2.0 and 7.4 and at 37° C.
The compound to be studied was dissolved in 10.0 ml of phosphate buffer. The solution was stirred for 24-1000 h in a water bath with a magnetic stirrer, and samples were taken at regular intervals and analysed with HPLC. From the results a graph of pseudo I order was drawn, where the amount of the remaining compound was shown as a function of time. From the slope (kk) of the linear graph so obtained, a dissociation constant k (k=2.303×-kk) was calculated, wherefrom the half-life T1/2 (T1/2 =0.693/k) of the prodrug molecule under the circumstances in question was calculated.

[5] = system: PTH-induced bone resorption in mouse calvaria; assay: Inhibition of PTH-induced bone resorption in mouse calvaria in vitro; assay type: cell-based; details: 72 h, 100 μmol/l, PTH 10 nM, cultured for three days, read-out: Inhibition of resorption 100 (PTH-x)/PTH
Method: Newborn mice were labeled by a subcutaneous injection of ^45 Ca four days prior to sacrifice. Calvarial bone fragments were microdissected from the parietal bones, preincubated in culture medium with indomethacin, washed and then cultured for three days with and without a bisphosphonate prodrug. Bone resorption was stimulated by parathyroid hormone (PTH, 10 nM), and the effect on this stimulated resorption was measured. As presented in Table 4, an inhibition of resorption by the compounds was shown. The inhibition by the bisphosphonate prodrugs was even higher than with the parent drug.

[6] = Absorption and hydrolysis in vivo, oral bioavailability in fasted rats; details: rat, 100 umol/kg, urine 72 hours, compared with intravenous, parent drug analyzed
Method: Absorption and hydrolysis of the compounds in vivo was studied in fasted rats. Absorption was determined from the total amount excreted into urine during 72 hours after administration. For the determination of oral bioavailability excreted amount after oral administration was compared with that after intravenous administration. The urine samples were analyzed for the parent drug with mass-selective or nitrogen phosphorous-detection gas chromatography. The results presented in Table 5 show increased bioavailability of the bisphosphonate prodrugs compared with that of the parent compound.

[7] = phosphate buffer 50 mM, pH 7.4, room temperature
[8] = pH 2.0, read-out: Log P (pH 2.0)
[9] = 1-octanol/phosphate buffer, pH 7.4, read-out: Log P (pH 7.4)
[10] = μ=0.15, pH 2.0, 37° C., read-out: T1/2 pH 2.0 (converted)
[11] = μ=0.15, pH 7.4, 37° C., read-out: T1/2 pH 7.4 (converted)

SMILES	solubility at 2 h [1, 7]	metabolised at 1 min [2]	logD [3, 8]	logD [3, 9]	half-life [4, 10]	inhibition at 100 µM [5]	also measured
O=C(OP(=O)(O)C(Cl)(Cl)P(=O)(O)OC(=O)c1ccccc1)c1ccccc1 [Benzoe acid dianhydride (Ex. 7), P,P'-Di(benzoyl)(dichloromethylene)bisphosphonate disodium salt]	6 mg/mL	91.4 ± 8.6%	-1.5	-2.4	286 h		half-life [4, 11]: 235 h
O=P([O-])([O-])C(Cl)(Cl)P(=O)(O)O.[Na+].[Na+] [Clodronate, dichloromethylenebisphosphonic acid disodium salt, reference compound]	397 mg/mL					43.2%	Water-solubility (in words) ([1]; reason why the distribution coefficient cannot be determined): extremely water-soluble; bioavailability at 72 h [6]: 2.17%
CC(C)C(=O)OP(=O)(O)C(Cl)(Cl)P(=O)(O)OC(=O)C(C)C [Compound 2, P,P-di(isobutyroyl)(dichloromethylene)bisphosphonate disodium salt]						64.8%	
CCCCCCCCCCCCCC(=O)OP(=O)(O)C(Cl)(Cl)P(=O)(O)OC(=O)CCCCCCCCCCCCC [Compound 3, P,P'-di(tetradecanoyl)(dichoromethylene)bisphosphonate disodium salt]						50.5%	
CCCCCCCCCCCCCCCCCC(=O)OP(=O)(O)C(Cl)(Cl)P(=O)(O)OC(=O)CCCCCCCCCCCCCCCCC [Compound 4, P,P'-di(octadecanoyl)(dichloromethylene)bisphosphonate disodium salt]						53.9%	

More lines, main results first:

solubility at 2 h [1, 7]	metabolised at 1 min [2]	logD [3, 8]	logD [3, 9]	half-life [4, 10]	SMILES	inhibition at 100 µM [5]	also measured
172 mg/mL	98 ± 6.9%	-1.9	-2.4	0.8 h	CCCC(=O)OP(=O)(O)C(Cl)(Cl)P(=O)(O)OC(=O)CCC [Butanoic acid dianhydride (Ex. 7), P,P'-Dibutyroyl(dichloromethylene)bisphosphonate disodium salt]		T1/2 pH 7.4 ([4]; μ=0.15, pH 7.4, 37° C.): 31.3 h
190 mg/mL	102 ± 1.2%	-1.4	-2.2	0.7 h	CC(=O)OP(=O)(O)C(Cl)(Cl)P(=O)(O)OC(C)=O [Compound 1, P,P'-Diacetyl(dichloromethylene)bisphosphonate disodium salt]	48.7%	T1/2 pH 7.4 ([4]; μ=0.15, pH 7.4, 37° C.): 15.2 h
		-2	-2.3		CC(C)(C)C(=O)OP(=O)(O)C(Cl)(Cl)P(=O)(O)OC(=O)C(C)(C)C [Pivalyl acid dianhydride (Ex. 7), P,P'-Di(pivaloyl)(dichloromethylene)bisphosphonate disodium salt]		Water-solubility ([1]; phosphate buffer 50 mM, pH 7.4, room temperature, 120 min): 23,5 mg/ml; T1/2 Plasma [2]: 3.3 ± 0.6 h; half-life [4, 11]: 790 h; T1/2 pH 2.0 ([4]; μ=0.15, pH 2.0, 37° C.): 8.6 h

Reference: patent US6326363A, “Methylenebisphosphonic acid derivatives” (Leiras Oy, priority 1997, dated 2001)
